ChEMBL document CHEMBL3507680, “University of Dundee, Gates Library screen for HepG2 cell viability”

Experiment: Human HepG2 cell viability assay in 384 well format
Format: toxicity, cell-based
Set-up: dose 125 nL, time 70.5 hour; concentration not given beside the values
Conditions: HepG2 cells, read-out: Inhibition

Row | SMILES | cytotoxicity at 70.5 h [%]
1 | CS(=O)(=O)N1CCCC12CCCN(C(=O)c1ccnnc1)C2 (configuration not stated) | -11.3
2 | COCC1c2nnn(CC3CC3)c2CCN1C(=O)c1sccc1C (configuration not stated) | -11.5
3 | COCC1c2nnn(CC3CC3)c2CCN1C(=O)c1cc(C)on1 (configuration not stated) | -12.7
4 | Cc1ccoc1C(=O)N1CCc2ncnc(-c3cnn(C)c3)c2CC1 | 24.7
5 | Cc1noc(C2CCC3(CCN(C(=O)c4ccnnc4)CC3)O2)n1 (configuration not stated) | -0.131
6 | CC(=O)N1CCc2ncc(CNC(=O)C3CCC3)n2CC1 | -2.29
7 | CCS(=O)(=O)N1Cc2ncn(CC3CC3)c2C(COC)C1 (configuration not stated) | -0.679
8 | CCN1CCc2cc(C(=O)N(C)C)c(NCC3CC3)nc2CC1 | 2.86
9 | CN1CC2(CCN(C(=O)C3CCC3)CC2)COc2ccccc2S1(=O)=O | -4.42
10 | CCN1CC2(CCN(C(=O)N(C)C)CC2)COc2ccccc2S1(=O)=O | 4.83
11 | Cc1cc(C(=O)N2CCc3ncnc(-c4cnn(C)c4)c3CC2)c(C)o1 | -7.85
12 | COCC1CN(CC2CC2)Cc2ncn(CC3CC3)c21 (configuration not stated) | 2.41
13 | Cc1noc(C2CCC3(CCN(C(=O)c4ncccn4)CC3)O2)n1 (configuration not stated) | 2.54
14 | O=C1CCCN1Cc1ncn2c1CN(C(=O)C1CC=CC1)CCC2 | -5.43
15 | O=C(NCC1CCOCC1)[C@@H]1C[C@@H]2[C@@H](CCN2Cc2ccoc2)O1 | 0.123
16 | Cc1noc(C2CCC3(CCN(C(=O)c4ccncn4)CC3)O2)n1 (configuration not stated) | 3.42
17 | CN(C)C(=O)c1cc2c(nc1NCC1CC1)CCN(CC1CC1)CC2 | 5.16
18 | O=C(NCC1CC1)[C@H]1CC[C@@H]2[C@@H](CCN2Cc2nccs2)O1 | 1.44
19 | CCn1ncc2c1C(COC)CN(Cc1ccc(C)o1)C2 (configuration not stated) | 2.21
20 | CN(C)CCN1CCN(CC2CC2)c2ncccc2C1 | -3.26
21 | Cc1nccc([C@H]2C[C@@H]3CCN(S(C)(=O)=O)C[C@H]3O2)n1 | -0.795
22 | CCOC[C@@H]1CC[C@H]2[C@H](CCN2C(=O)c2ccncc2F)O1 | -1.37

Row | SMILES | cytotoxicity at 70.5 h [%]
23 | CNC(=O)N1CCC2(CC1)CC[C@@]1(C(=O)NC)CN(S(C)(=O)=O)C[C@@H]21 | -0.00397
24 | Cc1nccc([C@@H]2C[C@@H]3CCN(S(=O)(=O)N(C)C)C[C@H]3O2)n1 | 1.05
25 | Cc1ccc(S(=O)(=O)N2CCCC3(CCCN3S(C)(=O)=O)C2)cc1F (configuration not stated) | 0.261
26 | CNC(=O)[C@@]12CCC3(CCN(S(C)(=O)=O)CC3)[C@@H]1CN(C(C)=O)C2 | -0.353
27 | CNC(=O)[C@@]12CCC3(CCN(S(=O)(=O)C4CC4)CC3)[C@@H]1CN(C(C)=O)C2 | 20.2
28 | COCc1ncn2c1CN(C(=O)c1ccc[nH]1)CC2 | -4.65
29 | CNC(=O)[C@@]12CCC3(CCN(C(=O)C(C)C)CC3)[C@@H]1CN(S(C)(=O)=O)C2 | 2.4
30 | Cc1nccc([C@@H]2C[C@H]3CN(S(=O)(=O)c4ccccc4)C[C@H]3O2)n1 | -2.27
31 | CC(C)CC(=O)N1CCCC2(CC(C(=O)Nc3ccccc3)=NO2)C1 (configuration not stated) | -0.967
32 | O=C(Nc1ccccc1)C1=NOC2(CCCN(C(=O)C3CCCC3)C2)C1 (configuration not stated) | -1.79
33 | CC(C)(C)CC(=O)N1CCCC2(CC(C(=O)Nc3ccccc3)=NO2)C1 (configuration not stated) | -8.03
34 | O=C(C1CCOCC1)N1C[C@H](OCc2cccnc2)[C@H]2COC[C@H]21 | -5.49
35 | O=C(c1cscn1)N1C[C@H](OCc2cccnc2)[C@H]2COC[C@H]21 | -5.24
36 | Cc1ccc(C(=O)N2C[C@H](OCc3cccnc3)[C@H]3COC[C@H]32)cn1 | -2.21
37 | COc1ncccc1C(=O)Nc1nc2c(s1)CN(S(=O)(=O)C1CC1)CC2 | 3.95
38 | CS(=O)(=O)N1CCc2nc(NC(=O)Nc3c(F)cccc3F)sc2C1 | 0.946
39 | Cc1ccc(S(=O)(=O)NC2CNC(=O)C2)cc1C (configuration not stated) | 0.672
40 | COc1cccc(S(=O)(=O)NC2CNC(=O)C2)c1 (configuration not stated) | 1.68
41 | O=C(c1cnn2c1OCCC2)N1CCC2(CC1)OCCO2 | -1.08
42 | COc1ccc(C)cc1NC(=O)Nc1cnc(N2CCN(C)CC2)nc1 | 16.2
43 | Cn1c(C(F)(F)F)nn(CCNC(=O)NCc2ccccc2)c1=O | 16.5
44 | Cc1noc(-c2ccc(N3CCCC(C(=O)N4CCSCC4)C3)nc2)n1 (configuration not stated) | 3.88

Row | SMILES | cytotoxicity at 70.5 h [%]
45 | O=C1CCSCC(C(=O)N2CCCC2)N1 (configuration not stated) | -2.31
46 | O=C1CCSCC(C(=O)N2CCN(C3CCCCC3)CC2)N1 (configuration not stated) | 0.692
47 | CN(C)S(=O)(=O)N1CCC(Oc2ccccn2)CC1 | 3.95
48 | CCOCC(=O)N1CCC(Oc2ccc(C(F)(F)F)cn2)CC1 | -4.36
49 | CCOCC(=O)N1CCC(Oc2ccc(Cl)cn2)CC1 | -4.45
50 | COc1ccccc1S(=O)(=O)N1CCC(Oc2cccnn2)CC1 | 3.7
51 | O=C(c1ccc(F)c(F)c1)N1CCCSCC1CN1CCCC1 (configuration not stated) | -0.49
52 | Cc1cnc2n(c1=O)CC(C(=O)NC1CC1)CS2 (configuration not stated) | 2.18
53 | Cc1cnc2n(c1=O)CC(C(=O)Nc1cccc3cccnc13)CS2 (configuration not stated) | -5.53
54 | CCc1c(C)nc2n(c1=O)CC(C(=O)Nc1nccs1)CS2 (configuration not stated) | 33.6
55 | COC(=O)N1CCc2ccc(NC(=O)c3cn(C)nn3)cc2C1 | -4.27
56 | O=C(CC1CCCC1)NCCn1ccc(-c2ccncc2)n1 | 9.19
57 | O=C(NCCn1ccc(-c2ccccn2)n1)c1ccncc1 | 11.3
58 | Cn1nc(CNC(=O)c2nc3ccccc3s2)c2c1CCOC2 | 8.85
59 | Cn1nc(CNC(=O)C2CC2)cc1C1CC1 | 8.22
60 | Cn1cnnc1S(=O)(=O)C1CCN(S(=O)(=O)C2CC2)CC1 | -1.29
61 | O=S(=O)(Nc1cnn(C2CCOCC2)c1)c1c(F)cccc1F | -1.01
62 | O=C(CSC1CCc2ccccc2NC1=O)NCCO (configuration not stated) | 2.81
63 | Cc1[nH]/c(=N\C(=O)c2csc(NCC(C)C)n2)sc1C | 5.69
64 | O=C(Cn1cc(-c2ccccc2)ncc1=O)Nc1nnc[nH]1 | -13.5
65 | O=C(Cn1c(=O)nc2n1C(=O)N(c1ccccc1)C2)Nc1ccccc1 | -7.97
66 | COCCNC(=O)c1sc(Nc2ccc(Cl)cn2)nc1C | -13.2

Row | SMILES | cytotoxicity at 70.5 h [%]
67 | COCc1c(C(=O)O)nnn1Cc1cccc(C(F)(F)F)c1 | -18.5
68 | O=C(Cn1cc(C(=O)O)ccc1=O)Nc1ccc(F)cc1Cl | -23.3
69 | Cc1ccc(C2C3=C(COC3=O)Nc3[nH]nc(C)c32)cc1C (configuration not stated) | -3.38
70 | CC(C)CCN1CN=C(NS(=O)(=O)c2ccc(F)cc2)NC1 | -8.69
71 | Cc1c(C)n(Cc2ccncc2)c2nc3c(c(N)c12)CCCCC3 | 25.4
72 | CCOC(=O)C1CCN(C(=O)Cn2ccc3cc(Br)ccc32)CC1 | 24.7
73 | O=C(NCCN1CCCCC1)c1nc(-c2ccc3cc[nH]c3c2)no1 | -4.34
74 | Cn1c(=O)n(C)c2cc(C3SCC(=O)Nc4ccsc43)ccc21 (configuration not stated) | 38.6
75 | CC(C)NC(=O)c1ccc2c(c1)nc1n2CCN(C(C)C)C1 | -13.4
76 | CC(C)c1cc2c(O)nc(CSCC(=O)O)nc2s1 | -14.7
77 | COc1ccc(-c2noc(C(=O)NCCN3CCCCC3)n2)cc1OC | 26.1
78 | CC(C)NC(=O)c1ccc2c(c1)nc1n2CCN(c2ccccc2)C1 | -11.7
79 | O=c1ccc(-c2cccs2)nn1CN1CCN(Cc2ccccc2)CC1 | -13.1
80 | COc1ccc(CNCC(C)Oc2ccccn2)cc1Br (configuration not stated) | -18.5
81 | O=C(Nc1cnccn1)[C@H]1CC[C@@H]2[C@@H](CCN2Cc2ccoc2)O1 | 25.7
82 | Cc1ccc2c(n1)N(CCn1cccn1)CCN(S(C)(=O)=O)C2 | 27.2
83 | O=C(NCc1cnc2n1CCN(CC1CC1)C2)C1CC1 | 28
84 | CN1CC2(CCN(CC3CC3)CC2)COc2ccccc2S1(=O)=O | -1.33
85 | O=C(NCc1cccs1)[C@H]1CC[C@@H]2[C@@H](CCN2Cc2ccoc2)O1 | 2.32
86 | COCC(=O)N1CCN(CCn2cccn2)c2nc(C)ccc2C1 | 0.00132
87 | CN(C)C(=O)CN1CCC2(CC1)COc1ccccc1S(=O)(=O)N(C)C2 | 0.16
88 | O=C(NCc1cnc2n1CCN(Cc1nccs1)CC2)C1CCC1 | -2.78

Row | SMILES | cytotoxicity at 70.5 h [%]
89 | COCC1CN(Cc2ccc(C)s2)Cc2nnn(C)c21 (configuration not stated) | 2.8
90 | Cc1ccc(CN2CCc3ncc(CNC(=O)C4CCC4)n3CC2)o1 | -2.7
91 | Cc1ccc(CN2Cc3nnn(C)c3C(COCC(=O)N(C)C)C2)s1 (configuration not stated) | -8.72
92 | Cc1ccc(CN2Cc3nnn(C)c3C(COCC3CC3)C2)s1 (configuration not stated) | 4.45
93 | Cc1csc(CN2C[C@@H]3COC[C@]3(COCC(=O)N(C)C)C2)n1 | -3.08
94 | CC(C)COC[C@H]1CC[C@H]2[C@H](CCN2C(=O)c2ccncc2F)O1 | -0.218
95 | CNC(=O)c1ccc2c(c1)C1(CCN(CC3CC3)CC1)C(=O)N2 | 1.88
96 | COCCN1CCC2(CC1)C(=O)Nc1ccc(C(=O)NC(C)C)cc12 | 1.35
97 | CNC(=O)CN1CC[C@H]2CN(C(=O)c3ccccc3C)C[C@H]2C1 | -3.61
98 | CC(C)CNC(=O)[C@H]1CCS(=O)(=O)[C@@H]2CN(Cc3ccc(F)cc3)C[C@H]12 | -10.2
99 | COc1ccc(CN2Cc3nnn(C)c3C(COCCN(C)C)C2)cc1 (configuration not stated) | 4.07
100 | Cc1nc(CN2CC[C@H](OCC3CC3)[C@@H]2Cc2cccnc2)cs1 | -1.82
101 | Cc1noc(C)c1CN1C[C@@H]2CCCO[C@@H]2[C@H](Nc2ccccn2)C1 | -4.07
102 | O=C(CC1CC1)N1CC[C@@H]2[C@H](CC1)N(Cc1cccnc1)CCS2(=O)=O | 5.01
103 | c1cncc(C2COC3(CCN(Cc4ccsc4)CC3)C2)c1 (configuration not stated) | -3.18
104 | CCS(=O)(=O)N1CC[C@@H]2[C@H](CC1)N(Cc1cccnc1)CCS2(=O)=O | -4.2
105 | CN(C)CCOCC1CN(Cc2ccccn2)Cc2nnn(C)c21 (configuration not stated) | 0.965
106 | CN(C)CCN1CCN(Cc2nccs2)Cc2cccnc21 | 2.78
107 | CN(C)CCN1CCN(Cc2cccs2)Cc2cccnc21 | -0.769
